Source: patent publication US20230331803A1, “CO-AGONISTS OF THE GLP-1 AND AMYLIN RECEPTORS” (priority 2020, published 2023)
Read-outs that look alike come from different tables or passages of the source. Starred links: 1 amine or outer side, 2 acyl side, 3 side chain; linkers in the order of their positions; H or OH if unused. Non-standard residues stand in square brackets, D forms with d. Groups on a side chain read outwards from the residue. *: point of attachment. Decanoyl(10-(4-HOOC-PhO)) = O=C(O)c1ccc(OCCCCCCCCCC(=O)*)cc1; C20 diacid = O=C(O)CCCCCCCCCCCCCCCCCCC(=O)*; C18 diacid = O=C(O)CCCCCCCCCCCCCCCCC(=O)*; γGlu = O=C(O)[C@H](CCC(=O)[*:2])N[*:1]; εLys = N[C@@H](CCCCN[*:1])C(=O)[*:2]; Trx = NC[C@H]1CC[C@H](C(=O)O)CC1; AEEA = NCCOCCOCC(=O)O; Aib = CC(C)(N)C(=O)O

How the values were obtained:
Sprague Dawley (SD) rats = test: Acute food intake in ad libitum fed rats after a single subcutaneous administration; type: in vivo, rat; conditions: Table 6a, rat, single administration;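 note: food intake monitored in the HM2 system, three rats per cage kept on a reversed light cycle, with food and water freely available after the subcutaneous dose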
Text: Sprague Dawley (SD) rats from Taconic Europe, Denmark were used for the acute food intake experiments, wherein the principles of laboratory animal care were followed.
The rats arrived at least 10-14 days before the start of the experiment to allow acclimatisation to experimental settings. During this period, the animals were handled at least 2 times. Immediately upon arrival, rats were put on a reversed light cycle (dark from 11am - 11pm) and put in the HM2 system and ID chipped. Three rats were housed in each cage. […] The rats were dosed once according to body weight with a 0.01-3 mg/kg solution administered subcutaneously (sc). The time of dosing was recorded for each group.
After dosing, the rats were returned to their home cages, where they had access to food and water. […] At the end of the experimental session, the animals were euthanised.

[1] = biological target: T1, human amylin receptor (hAmyR3) (Homo sapiens, UniProt O60896+P30988); test: Human amylin receptor in vitro potency assay (CRE-luciferase reporter, BHK cells); type: cell-based;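 note: BHK cells expressing human calcitonin receptor plus RAMP3 (amylin-3 receptor) with a CRE-luciferase reporter, agonist activity read as luminescence from cAMP-driven transcription, 7-point serial dilutions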
T1 construct: host or cells: BHK cells (Hollex-1 line: human calcitonin receptor (a) + CRE-Luc), further transfected with human RAMP3

human GLP-1 receptor = biological target: T2, human GLP-1 receptor (Homo sapiens, UniProt P43220); test: Human GLP-1 receptor in vitro potency assay (CRE-luciferase reporter, BHK cells); type: cell-based
T2 construct: expressed in transfected cells; host or cells: BHK (Baby Hamster Kidney) cells, clone BHK 467-12A KZ-10, stably transfected, with CRE-luciferase reporter
Experimental: It is thus possible to measure GLP-1 receptor activity using a CRE-luciferase reporter gene introduced into Baby Hamster Kidney (BHK) cells co-expressing the GLP-1 receptor.
Cells were aliquoted and stored at -180° C. until use.
Plates were sealed and incubated at room temperature with gentle shaking for 30 minutes while protected from light. Luminescence was detected on a luminescence plate reader e.g. a Synergy 2 (BioTek).

[2] = Pharmacokinetic studies in Beagle dogs after oral administration of SNAC-based tablets; type: in vivo; conditions: dogs, oral administration (tablet)
Experimental: To be able to evaluate oral exposure following tablet dosing, tablet compositions comprising the test substance and SNAC (sodium N-(8-(2-hydroxybenzoyl)amino)caprylate) were prepared by mixing test substance with roller compacted SNAC and magnesium stearate as, e.g., described in WO 2019/149880. The amount of SNAC in the tablet composition was 100-300 mg, the amount of magnesium stearate in the tablet composition was 7.7 mg, and the target amount of each test substance in the tablet composition was 3-4 mg.
Pharmacokinetic (PK) studies in Beagle dogs were conducted to determine the exposure of the GLP-1 receptor-amylin receptor co-agonist after peroral administration.
For the pharmacokinetic studies male Beagle dogs were used, 2-7, or 1 to 5, years of age and weighing approximately 10-15, such as 10-12, kg at the start of the studies. The dogs were group housed in pens (12 hours light: 12 hours dark),and fed individually and restrictedly once daily with Royal Canin Medium Adult dog (Royal Canin Products, China Branch, or Brogaarden A/S, Denmark). Exercise and group social were permitted daily, whenever possible. The dogs were used for repeated pharmacokinetic studies with a suitable wash-out period between successive dosing. An appropriate acclimatisation period was given prior to initiation of the first pharmacokinetic study. All handling, dosing and blood sampling of the animals were performed by trained and skilled staff. Before the studies the dogs were fasted overnight and from 0 to 4 h after dosing. Besides, the dogs were restricted to water 1 hour before dosing until 4 hours after dosing, but otherwise have ad libitum access to water during the whole period.
The tablets used for the p.o. studies described herein were immediate release SNAC-based tablets dosed orally.
The tablets were administered in the following manner: 10 min prior to tablet administration the dogs may be dosed subcutaneously with approximately 3 nmol/kg of SEQ ID NO: 237, tablets were placed in the back of the mouth of the dog to prevent chewing. The mouth was then closed, and 10 mL of tap water was given by a syringe or gavage to facilitate swallowing of the tablet.
Blood was sampled at predefined time points for up till 240 hours, such as up till 10 hr, post dosing to adequately cover the full plasma concentration-time absorption profile of the GLP-1 agonist.
For each blood sampling time point approximately 0.8 mL of whole blood was collected in a 1.5 mL EDTA coated tube, and the tube was gently turned to allowing mixing of the sample with the EDTA. Blood samples (for example 0.8 mL) were collected in EDTA buffer (8 mM) and then centrifuged at 4° C. and 2000 G for 10 minutes. Plasma was pipetted into Micronic tubes on dry ice, and kept at -20° C. until analysis.
Blood samples were taken as appropriate, for example from a venflon in the cephalic vein in the front leg for the first 2 hours and then with syringe from the jugular vein for the rest of the time points (the first few drops were allowed to drain from the venflon to avoid heparin saline from the venflon in the sample).
Plasma concentration of the GLP-1 receptor-amylin receptor co-agonists were determined using LCMS. Individual plasma concentration-time profiles were analysed by a non-compartmental model in WinNonlin v. 5.0 or Phoenix v. 6.2 or 6.3 (Pharsight Inc., Mountain View, CA, USA), or other relevant software for PK analysis.
The individual plasma concentration-time profiles were analysed by non-compartmental analysis (NCA).

[3] = Table 4a, BHK hAmyR3/CRE-Luc cells, 3 hours, read-out: Human AmyR3 potency [EC50 (pM)]
[4] = Table 4a, BHK cells expressing human GLP-1R, CRE-Luc, 3 hours, read-out: Human GLP-1R potency [EC50 (pM)]

T1 sequence (P30988 25-474): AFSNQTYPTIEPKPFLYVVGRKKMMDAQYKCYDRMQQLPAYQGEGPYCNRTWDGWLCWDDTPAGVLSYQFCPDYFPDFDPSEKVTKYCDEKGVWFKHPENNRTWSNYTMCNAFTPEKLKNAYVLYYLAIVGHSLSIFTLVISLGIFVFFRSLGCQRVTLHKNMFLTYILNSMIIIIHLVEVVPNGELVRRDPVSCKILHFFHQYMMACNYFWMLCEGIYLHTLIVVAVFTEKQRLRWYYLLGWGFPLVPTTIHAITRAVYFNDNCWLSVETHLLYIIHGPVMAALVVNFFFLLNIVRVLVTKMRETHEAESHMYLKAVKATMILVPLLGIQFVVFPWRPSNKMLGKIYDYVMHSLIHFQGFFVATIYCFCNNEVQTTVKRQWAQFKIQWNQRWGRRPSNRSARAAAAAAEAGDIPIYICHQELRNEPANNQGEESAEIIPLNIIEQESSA
T1 sequence (O60896 24-148): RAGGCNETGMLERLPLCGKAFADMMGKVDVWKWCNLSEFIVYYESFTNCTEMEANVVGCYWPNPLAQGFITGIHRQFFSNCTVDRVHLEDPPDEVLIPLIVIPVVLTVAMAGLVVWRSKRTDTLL
T2 sequence (P43220 24-463): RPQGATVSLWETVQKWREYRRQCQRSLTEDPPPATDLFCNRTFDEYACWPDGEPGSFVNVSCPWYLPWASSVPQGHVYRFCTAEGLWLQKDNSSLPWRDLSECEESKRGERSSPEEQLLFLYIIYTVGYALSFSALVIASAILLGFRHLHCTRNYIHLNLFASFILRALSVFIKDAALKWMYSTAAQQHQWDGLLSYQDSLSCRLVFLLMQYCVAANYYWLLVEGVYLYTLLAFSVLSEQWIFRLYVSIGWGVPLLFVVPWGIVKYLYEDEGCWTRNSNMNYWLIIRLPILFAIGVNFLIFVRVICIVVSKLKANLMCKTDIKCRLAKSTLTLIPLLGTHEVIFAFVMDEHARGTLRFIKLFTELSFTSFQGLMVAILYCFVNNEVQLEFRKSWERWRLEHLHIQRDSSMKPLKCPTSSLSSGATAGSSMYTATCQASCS

Row | Molecule | Food intake relative to vehicle (%) 0-24 hr, 10 nmol/kg (Sprague Dawley (SD) rats) [%] | Food intake relative to vehicle (%) 24-48 hr, 10 nmol/kg (Sprague Dawley (SD) rats) [%] | EC50 [1, 3] [pM] | EC50 (human GLP-1 receptor; [4]) [pM] | EC50 [1] [pM] | EC50 (human GLP-1 receptor) [pM] | AUC/D [2] [kg·h/L] | Cmax/D [2] [kg/L] | Tmax [2] [h] | T½ [2] [h]
1 | H-H[Aib]EGTFTSDVSSYLEGQAAK([AEEA-AEEA-γGlu-C18 diacid])EFIAWLVRGRGGGGGGGGGEASELSTAALGRLSAELHELATLPRTETGSGSP-NH2 [Compound 0052] | 42 | 86 | 19.4 | 17 | – | – | – | – | – | –
2 | H-H[Aib]EGTFTSDVSSYLEGQAAK([AEEA-AEEA-γGlu-Trx-C20 diacid])EFIAWLVRGRGGGGGGGGGEASELSTAALGRLSAELHELATLPRTETGSGSP-NH2 [Compound 0095] | 55 | 95 | 6.6 | 7.4 | – | – | – | – | – | –
3 | H-H[Aib]EGTFTSDVSSYLEGQAAK([εLys-AEEA-AEEA-γGlu-C18 diacid])EFIAWLVRGRGGGEASELSTAALGRLSAELHELATLPRTETGSGSP-NH2 [Compound 0044] | 40 | 82 | 9.1 | 16 | – | – | – | – | – | –
4 | H-H[Aib]EGTFTSDVSSYLEGQAAKEFIAWLVRGRK([AEEA-AEEA-γGlu-C18 diacid])GGEASELSTAALGRLSAELHELATLPRTETGSGSP-NH2 [Compound 0042] | 52 | 101 | 10.8 | 16.2 | – | – | – | – | – | –
5 | H-H[Aib]EGTFTSDVSSYLEGQAAREFIAWLVRGRK([AEEA-AEEA-γGlu-C18 diacid])GGGGEASELSTAALGRLSAELHELATLPRTETGSGSP-NH2 [Compound 0151] | 29 | 70 | 9.5 | 10.4 | – | – | – | – | – | –
6 | HWEGTFTSDVSSYLEEK([εLys-AEEA-AEEA-γGlu-Trx-C20 diacid])AAREFIEWLVRGRGEASELSTAALGRLSAELHELATLPRTETGSGSP-NH2 [Compound 0434] | 39 | 105 | 13.9 | 11.8 | – | – | – | – | – | –
7 | HWEGTFTSDVSSYLEEQAARK([AEEA-AEEA-γGlu-Decanoyl(10-(4-HOOC-PhO))])FIEWLVRGK([AEEA-AEEA-γGlu-Decanoyl(10-(4-HOOC-PhO))])GEGGGGGEASELSTAALGRLSAELHELATLPRTETGSGSP-NH2 [Compound 0100] | 85 | 86 | – | – | 30.4 | 6.8 | – | – | – | –
8 | H[Aib]EGTFTSDVSSYLEEQAARK([AEEA-AEEA-γGlu-C18 diacid])FIAWLVRGRK([AEEA-AEEA-γGlu-C18 diacid])GGEASELSTAALGRLSAELHELATLPRTETGSGSP-NH2 [Compound 0116] | 83 | 82 | 21.7 | 1.5 | – | – | – | – | – | –
9 | H[Aib]EGTFTSDVSSYLEEQAARK([γGlu-C18 diacid])FIAWLVRGRK([γGlu-C18 diacid])EASELSTAALGRLSAELHELATLPRTETGSGSP-NH2 [Compound 0131] | 70 | 80 | 14.5 | 16.1 | – | – | – | – | – | –
10 | HWEGTFTSDVSSYLEEQAAR-K([2-[2-[2-[[2-[2-[2-[[(4S)-4-Carboxy-4-[[4-[(19-Carboxynonadecanoylamino)Methyl]Cyclohexanecarbonyl]Amino]Butanoyl]Amino]Ethoxy]Ethoxy]Acetyl]Amino]Ethoxy]Ethoxy]Acetyl])-FIEWLVR … (peptide) peptide: HWEGTFTSDVSSYLEEQAARK([AEEA-AEEA-γGlu-4‑(aminomethyl)cyclohexanecarbonyl-C20 diacid])FIEWLVRGRGEGGGGGASELSTAALGRLSAELHELATLPRTETGSGSP-NH2 | 71 | 46 | – | – | – | – | 19.54 | 0.36 | 1.8 | 40
11 | H-Aib-EGTFTSDVSSYLEEQAAREFIAWLVRGR-K([(2S)-2-Amino-6-[[2-[2-[2-[[2-[2-[2-[[(4S)-4-Carboxy-4-[[4-[(19-Carboxynonadecanoylamino)Methyl]Cyclohexanecarbonyl]Amino]Butanoyl]Amino]Ethoxy]Ethoxy]Acetyl]Amino … (peptide) peptide: H[Aib]EGTFTSDVSSYLEEQAAREFIAWLVRGRK([εLys-AEEA-AEEA-γGlu-4‑(aminomethyl)cyclohexanecarbonyl-C20 diacid])GGGGEASELSTAALGRLSAELHELATLPRTETGSGSP-NH2 | 47 | 44 | – | – | – | – | 6.53 | 0.14 | 2.0 | 23
12 | H-Aib-EGTFTSDVS-K([2-[2-[2-[[2-[2-[2-[[(4S)-4-Carboxy-4-[[4-[(19-Carboxynonadecanoylamino)Methyl]Cyclohexanecarbonyl]Amino]Butanoyl]Amino]Ethoxy]Ethoxy]Acetyl]Amino]Ethoxy]Ethoxy]Acetyl])-YLEEQAAREFIA … (peptide) peptide: H-H[Aib]EGTFTSDVSK([AEEA-AEEA-γGlu-4‑(aminomethyl)cyclohexanecarbonyl-C20 diacid])YLEEQAAREFIAWLVRGRGGGGGEASELSTAALGRLSAELHELATLPRTETGSGSP-NH2 | 50 | 45 | – | – | – | – | 11.10 | 0.45 | 2.0 | 27
13 | H-Aib-EGTFTSDVSSYLEEQAAREFIAWLVRGRP-K([2-[2-[2-[[2-[2-[2-[[(4S)-4-Carboxy-4-[[4-[(19-Carboxynonadecanoylamino)Methyl]Cyclohexanecarbonyl]Amino]Butanoyl]Amino]Ethoxy]Ethoxy]Acetyl]Amino]Ethoxy]Ethoxy]A … (peptide) peptide: H[Aib]EGTFTSDVSSYLEEQAAREFIAWLVRGRPK([AEEA-AEEA-γGlu-4‑(aminomethyl)cyclohexanecarbonyl-C20 diacid])GGGGEASELSTAALGRLSAELHELATLPRTETGSGSP-NH2 | 73 | 53 | – | – | – | – | 3.25 | 0.12 | 3.0 | 25
